Experimental data from patent US9790537B2, “Quinone-masked probes as labeling reagents for cell uptake measurements” (PROMEGA CORPORATION, priority 2014, dated 2017).

Columns and labels:
OATP1B1*1a = OATP1B1*1a (Homo sapiens, UniProt Q9Y6L6); assay: Cell-based uptake transporter assay, TransportoCells OATP1B1*1a, luminescence; conditions: various concentrations, 30 min 37° C.; FIG. 13
Description: (§1) Stock solutions of each compound were prepared as 10 mM in methanol. Corning TransportoCells OATP1B1*1a, OATP1B3, and Control Cells were used as cell model for cell-based uptake transporter assay. Cells were cultured according to manufacturer's recommendations. Briefly, cells were thawed from liquid nitrogen storage and cultured in Dulbecco's Modified Eagle's medium supplemented with fetal bovine serum (FBS), MEM non-essential amino acid, and sodium butyrate. Cells were then plated in Corning 96-well, poly-D-Lysine white/clear plate at 100,000 cells/well in 100 μl medium and incubated for 24 hours at 37° C. with 5% CO2.
(§2) The uptake transporter assay was carried out by adding 100 μl of Hank's balanced salt solution containing 10 μM of one of the compounds to all the cells and incubated at 37° C. for 30 minutes. […] After a 20 minute incubation at room temperature (20°-25° C.), luminescence was detected on a GloMax® luminometer. […]
(§3) The uptake transporter assay was carried out by adding 100 μl of Hank's balanced salt solution containing various concentrations (See FIG. 13) of PBI-5651 to all the cells and incubated at 37° C. for 30 minutes. […] After a 20 minute incubation at room temperature (20°-25° C.), luminescence was detected on a GloMax® luminometer.

OATP1B3 = OATP1B3 (Homo sapiens, UniProt Q9NPD5); assay: Cell-based uptake transporter assay, TransportoCells OATP1B3, luminescence; conditions: various concentrations, 30 min 37° C.; FIG. 13
OATP1B3, sequence (Q9NPD5 whole entry): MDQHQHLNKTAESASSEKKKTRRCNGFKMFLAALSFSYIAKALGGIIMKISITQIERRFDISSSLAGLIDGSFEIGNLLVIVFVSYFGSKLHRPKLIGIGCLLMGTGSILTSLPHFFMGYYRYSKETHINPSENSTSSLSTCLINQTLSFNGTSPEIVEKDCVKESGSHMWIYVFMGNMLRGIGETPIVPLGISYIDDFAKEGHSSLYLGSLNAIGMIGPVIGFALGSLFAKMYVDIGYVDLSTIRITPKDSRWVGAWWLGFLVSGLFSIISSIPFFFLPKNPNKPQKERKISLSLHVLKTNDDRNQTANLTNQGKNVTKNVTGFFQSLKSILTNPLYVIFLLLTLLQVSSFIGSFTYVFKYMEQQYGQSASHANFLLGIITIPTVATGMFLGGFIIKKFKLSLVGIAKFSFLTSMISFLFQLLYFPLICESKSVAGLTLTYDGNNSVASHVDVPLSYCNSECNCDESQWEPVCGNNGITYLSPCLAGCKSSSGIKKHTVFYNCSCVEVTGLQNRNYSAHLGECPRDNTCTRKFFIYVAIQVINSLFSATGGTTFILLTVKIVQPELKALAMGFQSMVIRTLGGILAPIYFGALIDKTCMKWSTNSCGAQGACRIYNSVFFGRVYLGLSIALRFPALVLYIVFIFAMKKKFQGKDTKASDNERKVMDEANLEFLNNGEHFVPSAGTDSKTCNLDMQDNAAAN
Description: as §1, §2, §3

CC1=C(C)C(=O)C(C(C)(C)CC(=O)N(C)CCN(CCOCCOCCC(=O)NCCCCC(NC(=O)CC[C@@H](C)[C@H]2CC[C@H]3[C@@H]4[C@@H](O)C[C@@H]5C[C@H](O)CC[C@]5(C)[C@H]4CC[C@]23C)C(=O)O)C(=O)Oc2ccc3nc(C4=NC(C(=O)O)CS4)sc3c2)=C(C)C1=O (stereo partly drawn) [PBI-5651, 2-(6-((((20R)-15-carboxy-20-((3R,5S,7S,8R,9S,10S,13R,14S,17R)-3,7-dihydroxy-10,13-dimethylhexadecahydro-1H-cyclopenta[a]phenanthren-17-yl)-9,17-dioxo-3,6-dioxa-10,16-diazahenicosyl)(2-(N,3-dimethyl-3-(2,4,5-trimethyl-3,6-dioxocyclohexa-1,4-dien-1-yl)butanamido)ethyl)carbamoyl)oxy)benzo[d]thiazol-2-yl)-4,5-dihydrothiazole-4-carboxylic acid]
response of luminescence (RLU) to compound concentration (OATP1B1*1a): dynamic response of luminescence | response of luminescence (RLU) to compound concentration (OATP1B3): dynamic response of luminescence
